From patent US5488051A, “Substituted 5,6-dihydro-5-oxo-1,4-dithiino-(2,3-d)-pyridazine-2,3-dicarbonitriles, compositions containing them and their use as antimicrobials” (The Dow Chemical Company, priority 1994, dated 1996)
Converted amounts (≈) assume the structure as drawn. Read-outs that look alike come from different tables or passages of the source.

Tests used:
[1] = test system: Salmonella choleraesuis; assay: MIC for Salmonella choleraesuis, nutrient agar; assay type: cell-based, Salmonella choleraesuis ATCC 10708; conditions: Salmonella enterica, 30° C., 48 hours, read-out: Minimum Inhibitory Concentration (MIC), SC
Procedure: (§1) The minimum inhibitory concentration (MIC) for the compounds listed in Table I is determined for 9 bacteria, using nutrient agar; and 7 yeast and fungi, using malt yeast agar. A one percent solution of the test compound is prepared in a mixture of acetone and water.
(§2) Nutrient agar is prepared at pH 6.8, representing a neutral medium, and at pH 8.2, representing an alkaline medium. The nutrient agars are prepared by adding 23 g of nutrient agar to one-liter of deionized water. In addition, the alkaline medium is prepared by adjusting a 0.04M solution of N-[tris-(hydroxymethyl)methyl]-glycine buffered deionized water with concentrated sodium hydroxide to a pH of 8.5.
(§3) The test tubes containing the malt yeast agar and the nutrient agar are cooled in a water bath until the temperature of the agar is 48° C. Then, an appropriate amount of the one percent solution of the test compound is added (except in the controls where no compound is added) to the respective test tubes so that the final concentrations are zero (0), 1.0, 2.5, 5, 10, 25, 50, 100, 250 and 500 parts per million of the test compound in each of the respective type of agar. The contents of each of the test tubes are then transferred to separate petri plates. After drying for 24 hours, the petri plates containing nutrient agar are inoculated with bacteria and those containing malt yeast agar are inoculated with yeast and fungi.
(§4) The inoculation with bacteria is accomplished by using the following procedure. Twenty-four hour-cultures of each of the bacteria are prepared by incubating the respective bacteria in tubes containing nutrient broth for 24 hours at 30° C. in a shaker. Dilutions of each of the 24 hour-cultures are made so that nine separate suspensions (one for each of the nine test bacteria) are made, each containing 10^8 colony forming units (CFU) per mL of suspension of a particular bacteria. Aliquots of 0.3 mL of each of the bacterial suspensions are used to fill the individual wells of Steer's Replicator. For each microbial suspension, 0.3 mL was used to fill three wells (i.e., three wells of 0.3 mL each) so that for the nine different bacteria, 27 wells are filled. The Steer's Replicator is then used to inoculate both the neutral and alkaline pH nutrient agar petri plates.
(§5) The inoculated petri plates are incubated at 30° C. for 48 hours and then read to determine if the test compound which is incorporated into the agar prevented growth of the respective bacteria.
(§6) Table II list the bacteria, yeast and fungi used in the MIC test described above along with their respective American Type Culture Collection (ATCC) identification numbers.

[2] = test system: Klebsiella pneumonias (Kp); assay: MIC for Klebsiella pneumonias, nutrient agar; assay type: cell-based, Klebsiella pneumonias ATCC 8308; conditions: 30° C., 48 hours, read-out: Minimum Inhibitory Concentration (MIC), Kp
Procedure: as §1, §2, §3, §4, §5, §6

[3] = test system: Trichoderma viride (Tv); assay: MIC for Trichoderma viride, malt yeast agar; assay type: cell-based, Trichoderma viride ATCC 8678; conditions: malt yeast agar; 30° C., 72 hours for fungi; read-out: Minimum Inhibitory Concentration (MIC), Tv
Procedure: as §1
(§7) Malt yeast agar is prepared by adding 3 g yeast extract and 45 g malt agar per liter of deionized water. The specific agar is dispensed in 30 mL aliquots into 25×200 mm test tubes, capped and autoclaved for 15 minutes at 115° C.
as §3
(§8) The inoculation with the yeast and fungi is accomplished as follows. Cultures of yeast and fungi are incubated for seven days on malt yeast agar at 30° C. These cultures are used to prepare suspensions by the following procedure. A suspension of each organism is prepared by adding 10 mL of sterile saline and 10 microliters of octylphenoxy polyethoxy ethanol to the agar slant of yeast or fungi. The sterile saline/octylphenoxy polyethoxy ethanol solution is then agitated with a sterile swab to suspend the microorganism grown on the slant. Each resulting suspension is diluted into sterile saline (1 part suspension: 9 parts sterile saline). Aliquots of these dilutions are placed in individual wells of Steer's Replicator and petri plates inoculated as previously described. The petri plates are incubated at 30° C. and read after 48 hours for yeast and 72 hours for fungi.
as §6

[4] = test system: Pseudomonas aeruginosa (PRD-10); assay: MIC for Pseudomonas aeruginosa PRD-10, nutrient agar; assay type: cell-based, Pseudomonas aeruginosa ATCC 15442; conditions: 30° C., 48 hours, read-out: Minimum Inhibitory Concentration (MIC), PRD
Procedure: as §1, §2, §3, §4, §5, §6

[5] = test system: Aspergillus niger (An); assay: MIC for Aspergillus niger, malt yeast agar; assay type: cell-based, Aspergillus niger ATCC 16404; conditions: malt yeast agar; 30° C., 72 hours for fungi; read-out: Minimum Inhibitory Concentration (MIC), An
Procedure: as §1, §7, §3, §8, §6

[6] = test system: Enterobacter aerogenes (Ea); assay: MIC for Enterobacter aerogenes, nutrient agar; assay type: cell-based, Enterobacter aerogenes ATCC 13048; conditions: Klebsiella aerogenes, nutrient agar, 30° C., 48 hours, read-out: Minimum Inhibitory Concentration (MIC), Ea
Procedure: as §1, §2, §3, §4, §5, §6

[7] = test system: Fusarium oxysporum (Fo); assay: MIC for Fusarium oxysporum, malt yeast agar; assay type: cell-based, Fusarium oxysporum ATCC 48112; conditions: malt yeast agar; 30° C., 72 hours for fungi; read-out: Minimum Inhibitory Concentration (MIC), Fo
Procedure: as §1, §7, §3, §8, §6

[8] = test system: Saccharomyces cerevisiae; assay: MIC for Saccharomyces cerevisiae, malt yeast agar; assay type: cell-based, Saccharomyces cerevisiae ATCC 4105; conditions: malt yeast agar, 30° C., 48 hours for yeast, read-out: Minimum Inhibitory Concentration (MIC), Sc
Procedure: as §1, §7, §3, §8, §6

[9] = test system: Aureobasidium pullulan (Ap); assay: MIC for Aureobasidium pullulan, malt yeast agar; assay type: cell-based, Aureobasidium pullulan ATCC 16622; conditions: malt yeast agar; 30° C.; 48 hours for yeast and 72 hours for fungi; read-out: Minimum Inhibitory Concentration (MIC), Ap
Procedure: as §1, §7, §3, §8, §6

[10] = test system: Bacillus subtilis (Bs); assay: MIC for Bacillus subtilis, nutrient agar; assay type: cell-based, Bacillus subtilis ATCC 8473; conditions: 30° C., 48 hours, read-out: Minimum Inhibitory Concentration (MIC), Bs
Procedure: as §1, §2, §3, §4, §5, §6

[11] = test system: Penicillium chrysogenum (Pc); assay: MIC for Penicillium chrysogenum, malt yeast agar; assay type: cell-based, Penicillium chrysogenum ATCC 9480; conditions: malt yeast agar; 30° C., 72 hours for fungi; read-out: Minimum Inhibitory Concentration (MIC), PC
Procedure: as §1, §7, §3, §8, §6

[12] = test system: Proteus vulgaris (Pv); assay: MIC for Proteus vulgaris, nutrient agar; assay type: cell-based, Proteus vulgaris ATCC 881; conditions: 30° C., 48 hours, read-out: Minimum Inhibitory Concentration (MIC), Pv
Procedure: as §1, §2, §3, §4, §5, §6

[13] = test system: Escherichia coli (Ec); assay: MIC for Escherichia coli, nutrient agar; assay type: cell-based, Escherichia coli ATCC 11229; conditions: 30° C., 48 hours, read-out: Minimum Inhibitory Concentration (MIC), Ec
Procedure: as §1, §2, §3, §4, §5, §6

[14] = test system: Staphylococcus aureus (Sa); assay: MIC for Staphylococcus aureus, nutrient agar; assay type: cell-based, Staphylococcus aureus ATCC 6538; conditions: 30° C., 48 hours, read-out: Minimum Inhibitory Concentration (MIC), Sa
Procedure: as §1, §2, §3, §4, §5, §6

[15] = test system: Pseudomonas aeruginosa (Pa); assay: MIC for Pseudomonas aeruginosa, nutrient agar; assay type: cell-based, Pseudomonas aeruginosa ATCC 10145; conditions: 48 hours, read-out: Minimum Inhibitory Concentration (MIC), Pa
Procedure: as §1, §2, §3, §4, §5, §6

[16] = test system: Candida albicans (Ca); assay: MIC for Candida albicans, malt yeast agar; assay type: cell-based, Candida albicans ATCC 10231; conditions: malt yeast agar; 30° C., 48 hours for yeast; read-out: Minimum Inhibitory Concentration (MIC), Ca
Procedure: as §1, §7, §3, §8, §6

SMILES	MIC ([1]; pH 6.8, nutrient agar) [µg/mL]	MIC ([1]; pH 8.2, nutrient agar) [µg/mL]	MIC ([2]; pH 6.8, nutrient agar) [µg/mL]	MIC ([2]; pH 8.2, nutrient agar) [µg/mL]	MIC [3] [µg/mL]	MIC ([4]; pH 6.8, nutrient agar) [µg/mL]	MIC ([4]; pH 8.2, nutrient agar) [µg/mL]	MIC [5] [µg/mL]	MIC ([6]; pH 6.8) [µg/mL]	MIC ([6]; pH 8.2) [µg/mL]	MIC [7] [µg/mL]	MIC [8] [µg/mL]	MIC [9] [µg/mL]	MIC ([10]; pH 6.8, nutrient agar) [µg/mL]	MIC ([10]; pH 8.2, nutrient agar) [µg/mL]	MIC [11] [µg/mL]	MIC ([12]; pH 6.8, nutrient agar) [µg/mL]	MIC ([12]; pH 8.2, nutrient agar) [µg/mL]	MIC ([13]; pH 6.8, nutrient agar) [µg/mL]	MIC ([13]; pH 8.2, nutrient agar) [µg/mL]	also measured
N#CC1=C(C#N)Sc2c(cnn(-c3ccc([N+](=O)[O-])cc3)c2=O)S1 [H, 5,6-dihydro-6-(4-nitrophenyl)-5-oxo-1,4-dithiino-(2,3-d)-pyridazine-2,3-dicarbonitrile]	> 500	> 500	> 500	> 500	> 500	> 500	> 500	> 500	> 500	> 500	> 500	> 500	> 500	> 500	> 500	> 500	> 500	> 500	> 500	> 500	MIC ([14]; pH 6.8, nutrient agar): > 500 µg/mL; MIC ([14]; pH 8.2, nutrient agar): > 500 µg/mL; MIC ([15]; pH 6.8, 30° C.): > 500 µg/mL; MIC ([15]; pH 8.2, 30° C.): > 500 µg/mL; MIC [16]: > 500 µg/mL
N#CC1=C(C#N)Sc2c(cnn(Cc3ccccc3)c2=O)S1 [I, 5,6-dihydro-6-(phenylmethyl)-5-oxo-1,4-dithiino-(2,3-d)-pyridazine-2,3-dicarbonitrile]	250 (≈ 771 µM)	> 500	100 (≈ 308 µM)	> 500	25 (≈ 77.1 µM)	> 500	> 500	25 (≈ 77.1 µM)	> 500	> 500	< 10	< 10	< 10	< 10	100 (≈ 308 µM)	25 (≈ 77.1 µM)	100 (≈ 308 µM)	> 500	> 500	> 500	MIC ([14]; pH 6.8, nutrient agar): 50 µg/mL (≈ 154 µM); MIC ([14]; pH 8.2, nutrient agar): > 500 µg/mL; MIC ([15]; pH 6.8, 30° C.): 250 µg/mL (≈ 771 µM); MIC ([15]; pH 8.2, 30° C.): > 500 µg/mL; MIC [16]: < 10 µg/mL
N#CC1=C(C#N)Sc2c(cnn(Cc3ccc(Cl)cc3)c2=O)S1 [J, 5,6-dihydro-6-((4-chlorophenyl)methyl)-5-oxo-1,4-dithiino-(2,3-d)-pyridazine-2,3-dicarbonitrile]	> 500	> 500	> 500	> 500	25 (≈ 69.7 µM)	> 500	> 500	< 10	> 500	> 500	< 10	< 10	< 10	< 10	50 (≈ 139 µM)	< 10	250 (≈ 697 µM)	> 500	100 (≈ 279 µM)	> 500	MIC ([14]; pH 6.8, nutrient agar): 25 µg/mL (≈ 69.7 µM); MIC ([14]; pH 8.2, nutrient agar): 100 µg/mL (≈ 279 µM); MIC ([15]; pH 6.8, 30° C.): > 500 µg/mL; MIC ([15]; pH 8.2, 30° C.): > 500 µg/mL; MIC [16]: < 10 µg/mL
Cc1ccc(Cn2ncc3c(c2=O)SC(C#N)=C(C#N)S3)cc1 [K, 5,6-dihydro-6-((4-methylphenyl)methyl)-5-oxo-1,4-dithiino-(2,3-d)-pyridazine-2,3-dicarbonitrile]	> 500	> 500	> 500	> 500	25 (≈ 73.9 µM)	> 500	> 500	25 (≈ 73.9 µM)	> 500	> 500	25 (≈ 73.9 µM)	25 (≈ 73.9 µM)	< 10	< 10	100 (≈ 295 µM)	25 (≈ 73.9 µM)	500 (≈ 1480 µM)	> 500	> 500	> 500	MIC ([14]; pH 6.8, nutrient agar): > 500 µg/mL; MIC ([14]; pH 8.2, nutrient agar): > 500 µg/mL; MIC ([15]; pH 6.8, 30° C.): > 500 µg/mL; MIC ([15]; pH 8.2, 30° C.): > 500 µg/mL; MIC [16]: 25 µg/mL (≈ 73.9 µM)
